Experimental data reported in US20190365719A1, “COMBINATION TREATMENTS OF HSP90 INHIBITORS FOR ENHANCING TUMOR IMMUNOGENICITY AND METHODS OF USE THEREOF” (Massachusetts Institute of Technology, priority 2018, published 2019).

Columns and labels:
[1] = cited from earlier work
[2] = system: human peripheral blood mononuclear cells; test: RNA sequencing of ex vivo human peripheral blood mononuclear cells; format: cell-based; details: 500 nM for 20 hrs
Protocol: Whole blood was collected into lithium-heparin tubes and processed with Histopaque-1077 (Sigma) to isolate peripheral blood mononuclear cells per supplier's instructions. After overnight culture in RPMI160 with 20% autologous plasma, ganetespib (500 nM) or an equal volume of solvent vehicle (DMSO 0.1% v/v) was added to duplicate dishes. Incubation was continued for 24 hours after which cells were collected by centrifugation, lysed in RLT buffer (Qiagen) and total RNA isolated using an RNeasy kit per manufacturer's instructions (Qiagen). Sequencing library preparation was performed by the Whitehead Genome Technology Core using standard Illumina protocols and TruSeq adapters. Single-end, 40 bp sequencing was performed on a HiSeq 2000 instrument. Adapter sequences were trimmed, and reads were aligned to […] using TopHat2 and rpkm values generated with Cufflinks. Differential expression analysis was performed with the Bioconductor package DEseq.
To evaluate the immunosuppressive effect of high level HSP90 inhibition in a more controlled fashion, freshly isolated human peripheral blood mononuclear cells were cultured in ganetespib (500 nM for 20 hrs.) and the effects on RNA expression genome-wide were measured (FIG. 2A).

[3] = system: immune-related genes; test: NanoString immune profiling of whole blood from breast cancer patients given ganetespib; format: in vivo, human; details: 20-24 hours post intravenous drug administration, recommended Phase II dose
Protocol: Blood samples for gene expression analyses were obtained with informed consent from patients participating in an IRB-approved clinical trial coordinated by the Dana-Farber Cancer Institute, Boston, Mass. (DFCI 11-477, NCT01560416). All samples were processed and analyzed by collaborating investigators in an anonymous fashion to preserve patient confidentiality.
Gene expression measurements using Nanostring codesets were performed with NanoString XT GEx kits. Analyses were performed on total RNA from clinical samples or mouse tumor tissue following manufacturer's instructions. Briefly, 100 ng total RNA (measured by Qubit (Invitrogen)), was mixed with Capture and Reporter probe sets and hybridized for 16-20 hours at 65° C. prior to ramping down to hold at 4° C. Hybridized samples were processed on a Nanostring Prep Station according to manufacturer's instructions and then scanned with an FOV setting of 1100. All files (.rcc) were analyzed using nSolver v3.0 software.
As an approach to examine the impact of HSP90 compromise on the immune system in human cancer patients exposed to recommended dosing of an HSP90i, the RNA expression of immune-related genes in whole blood collected from 20 patients was profiled. […]

[4] = phase I, intravenous infusion days 1, 8 and 15, 4-weekly schedule

CC(C)c1cc(-c2n[nH]c(=O)n2-c2ccc3c(ccn3C)c2)c(O)cc1O [Ganetespib]
side effects / adverse effects ([1]; clinical use): diarrhea, fatigue, nausea, and anorexia
MTD as a combination therapy with crizotinib ([1]; days 1 and 8 of a 21-day cycle, phase II): 200 mg/m2
ocular toxicity ([1]; human, in vivo): No ocular toxicity has been reported
MTD as a monotherapy [1, 4]: 216 mg/m^2
highest dose with acceptable toxicity (RP2D) [1, 4]: 200 mg/m^2
most downregulated Gene Ontology categories [2]: immune-related pathways
most upregulated Gene Ontology categories [2]: RNA splicing and protein folding
expression of immune-related genes in whole blood [3]: broad down-regulation of expression across diverse immune-related genes
